Results: the NIST ThermoML archive (doi:10.1021/je800282a)
Numbers after ± are expanded uncertainties.

Legend:
[1] = for viscosity: 101.33 kPa, Liquid
[2] = refractive index (Na D-line) (dimensionless); settings: 101.33 kPa, Liquid
[3] = refractive index (Na D-line) (dimensionless); wn = mass fraction of the nth substance listed; settings: 101 kPa, Liquid
[4] = wn = mass fraction of the nth substance listed; settings: for viscosity: 101 kPa, Liquid

SMILES: CN(CCO)CCO [N-methyldiethanolamine]
- viscosity ([1]; 298.15 K): 77.85 ± 4.8 mPa·s
- surface tension liquid-gas ([1]; 303.15 K): 38.74 ± 1.1 mN/m
- viscosity ([1]; 308.15 K): 43.9 ± 1.4 mPa·s
- surface tension liquid-gas ([1]; 313.15 K): 37.48 ± 1 mN/m
- viscosity ([1]; 318.15 K): 27.44 ± 0.92 mPa·s
- surface tension liquid-gas ([1]; 323.15 K): 36.82 ± 1 mN/m
- viscosity ([1]; 328.15 K): 17.89 ± 0.62 mPa·s
- surface tension liquid-gas ([1]; 333.15 K): 35.31 ± 0.98 mN/m
- viscosity ([1]; 338.15 K): 12.34 ± 0.45 mPa·s
- refractive index ([2]; 303.15 K): 1.46532 ± 0.0012
- refractive index ([2]; 313.15 K): 1.46074 ± 0.0012
- refractive index ([2]; 318.15 K): 1.45892 ± 0.0012
- refractive index ([2]; 323.15 K): 1.45708 ± 0.0012
- refractive index ([2]; 333.15 K): 1.45287 ± 0.0012

SMILES: CN(CCO)CCO [N-methyldiethanolamine] + O
- refractive index ([3]; 303.15 K, w1 = 0.3228): 1.37748 ± 0.0013
- refractive index ([3]; 303.15 K, w1 = 0.488): 1.40298 ± 0.0013
- refractive index ([3]; 313.15 K, w1 = 0.3228): 1.37604 ± 0.0013
- refractive index ([3]; 313.15 K, w1 = 0.488): 1.39971 ± 0.0013
- refractive index ([3]; 318.15 K, w1 = 0.3228): 1.37467 ± 0.0013
- refractive index ([3]; 318.15 K, w1 = 0.488): 1.39629 ± 0.0013
- refractive index ([3]; 323.15 K, w1 = 0.3228): 1.37305 ± 0.0013
- refractive index ([3]; 323.15 K, w1 = 0.488): 1.39254 ± 0.0013
- refractive index ([3]; 333.15 K, w1 = 0.3228): 1.37134 ± 0.0013
- refractive index ([3]; 333.15 K, w1 = 0.488): 1.38821 ± 0.0013
- viscosity ([4]; 298.15 K, w1 = 0.3228): 3.48 ± 0.17 mPa·s
- viscosity ([4]; 298.15 K, w1 = 0.488): 9.25 ± 0.35 mPa·s
- surface tension liquid-gas ([4]; 303.15 K, w1 = 0.3288): 53.16 ± 1.4 mN/m
- surface tension liquid-gas ([4]; 303.15 K, w1 = 0.488): 47.56 ± 1.3 mN/m
- viscosity ([4]; 308.15 K, w1 = 0.3228): 2.26 ± 0.13 mPa·s
- viscosity ([4]; 308.15 K, w1 = 0.488): 6.14 ± 0.25 mPa·s
- surface tension liquid-gas ([4]; 313.15 K, w1 = 0.3288): 52.38 ± 1.4 mN/m
- surface tension liquid-gas ([4]; 313.15 K, w1 = 0.488): 46.92 ± 1.3 mN/m
- viscosity ([4]; 318.15 K, w1 = 0.3228): 1.82 ± 0.12 mPa·s
- viscosity ([4]; 318.15 K, w1 = 0.488): 4.37 ± 0.2 mPa·s
- surface tension liquid-gas ([4]; 323.15 K, w1 = 0.3288): 51.42 ± 1.4 mN/m
- surface tension liquid-gas ([4]; 323.15 K, w1 = 0.488): 45.58 ± 1.2 mN/m
- viscosity ([4]; 328.15 K, w1 = 0.3228): 1.34 ± 0.11 mPa·s
- viscosity ([4]; 328.15 K, w1 = 0.488): 3.46 ± 0.17 mPa·s
- surface tension liquid-gas ([4]; 333.15 K, w1 = 0.3288): 50.67 ± 1.4 mN/m
- surface tension liquid-gas ([4]; 333.15 K, w1 = 0.488): 44.83 ± 1.2 mN/m
- viscosity ([4]; 338.15 K, w1 = 0.3228): 1.17 ± 0.1 mPa·s
- viscosity ([4]; 338.15 K, w1 = 0.488): 2.81 ± 0.15 mPa·s
